{
  "source": "patent US20170014386A1",
  "about": "“Treatment of Multidrug-Resistant Nephrotic Syndrome (MDR-NS) in Children” (AbbVie, Inc., priority 2015, published 2017)",
  "key": {"Nphs2^R140Q/− mice [1]": {"test_system": "Nphs2^R140Q/− mice", "assay": "proteinuria in inducible mouse model of podocin-related nephrotic syndrome", "type": "in vivo", "method": "We have analyzed results from studies in a transgenic mouse model where the mice were treated with atrasentan. Using the Cre recombinase technology, we generated a novel inducible mouse model of podocin-related nephrotic syndrome. Cross-breeding of animals carrying one foxed podocin construct, one podocin allele with the R140Q mutation, and tamoxifen-sensitive inducible Cre enabled us to induce hemizygosity for the R140Q mutant. In this work, we were able to examine the human missense mutation […] of NPHS2 gene identified in pediatric patients with nephrotic syndrome in vivo in an inducible mouse model of R140Q mutation (murine analogue to the human mutation). […] Furthermore, from the end of the week four of observation the values of plasma urea and creatinine started to increase slightly and the creatinine clearance appeared to reduce, pointing to the beginning of renal failure. Seven animals were treated with 5 mg/kg/d atrasentan and another three animals were treated with the lower dose of 2.5 mg/kg/d atrasentan via food intake for four weeks. Furthermore, we started a new group of 8 animals with a higher dose treatment of 15 mg/kg/d atrasentan. […] Proteinuria (FIG. 1A, FIG. 1B, and FIG. 1D), weight gain and blood pressure (FIG. 1C) were monitored once weekly. All animals were sacrificed at the end of the observation period at week 5 (or week 9 with delayed treatment) and the biochemical parameters (FIG. 3A-E) were determined. All results were compared to two control groups of healthy and sick untreated animals. […] Therefore, we started the treatment after 4 weeks of disease state (5 mg/kg/d) when animals are showing high proteinuria, performing 4-weeks treatment duration (n=14) and 8 weeks treatment duration (n=4), respectively. Proteinuria (FIG. 6), weight gain and blood pressure (FIG. 7) were monitored at least every 2 weeks. All animals were sacrificed at the end of the observation period and biochemical parameters (FIG. 8) as well as histological changes (FIG. 9) were determined consequently. […]"}, "Nphs2^R140Q/− mice [2]": {"test_system": "Nphs2^R140Q/− mice", "assay": "mean arterial blood pressure in inducible mouse model of podocin-related nephrotic syndrome", "type": "in vivo", "method": "We have analyzed results from studies in a transgenic mouse model where the mice were treated with atrasentan. Using the Cre recombinase technology, we generated a novel inducible mouse model of podocin-related nephrotic syndrome. Cross-breeding of animals carrying one foxed podocin construct, one podocin allele with the R140Q mutation, and tamoxifen-sensitive inducible Cre enabled us to induce hemizygosity for the R140Q mutant. In this work, we were able to examine the human missense mutation […] of NPHS2 gene identified in pediatric patients with nephrotic syndrome in vivo in an inducible mouse model of R140Q mutation (murine analogue to the human mutation). […] Furthermore, from the end of the week four of observation the values of plasma urea and creatinine started to increase slightly and the creatinine clearance appeared to reduce, pointing to the beginning of renal failure. Seven animals were treated with 5 mg/kg/d atrasentan and another three animals were treated with the lower dose of 2.5 mg/kg/d atrasentan via food intake for four weeks. Furthermore, we started a new group of 8 animals with a higher dose treatment of 15 mg/kg/d atrasentan. […] Proteinuria (FIG. 1A, FIG. 1B, and FIG. 1D), weight gain and blood pressure (FIG. 1C) were monitored once weekly. All animals were sacrificed at the end of the observation period at week 5 (or week 9 with delayed treatment) and the biochemical parameters (FIG. 3A-E) were determined. All results were compared to two control groups of healthy and sick untreated animals. […] Therefore, we started the treatment after 4 weeks of disease state (5 mg/kg/d) when animals are showing high proteinuria, performing 4-weeks treatment duration (n=14) and 8 weeks treatment duration (n=4), respectively. Proteinuria (FIG. 6), weight gain and blood pressure (FIG. 7) were monitored at least every 2 weeks. All animals were sacrificed at the end of the observation period and biochemical parameters (FIG. 8) as well as histological changes (FIG. 9) were determined consequently. All results were compared to control groups of healthy and sick untreated animals."}, "Nphs2^R140Q/− mice [3]": {"test_system": "Nphs2^R140Q/− mice", "assay": "kidney histopathology (tubulointerstitial fibrosis, glomerular sclerosis index, podocytes per glomerulus) in the mouse model", "type": "in vivo", "method": "We have analyzed results from studies in a transgenic mouse model where the mice were treated with atrasentan. Using the Cre recombinase technology, we generated a novel inducible mouse model of podocin-related nephrotic syndrome. Cross-breeding of animals carrying one foxed podocin construct, one podocin allele with the R140Q mutation, and tamoxifen-sensitive inducible Cre enabled us to induce hemizygosity for the R140Q mutant. In this work, we were able to examine the human missense mutation […] of NPHS2 gene identified in pediatric patients with nephrotic syndrome in vivo in an inducible mouse model of R140Q mutation (murine analogue to the human mutation). […] Furthermore, from the end of the week four of observation the values of plasma urea and creatinine started to increase slightly and the creatinine clearance appeared to reduce, pointing to the beginning of renal failure. Proteinuria (FIG. 1A, FIG. 1B, and FIG. 1D), weight gain and blood pressure (FIG. 1C) were monitored once weekly. All animals were sacrificed at the end of the observation period at week 5 (or week 9 with delayed treatment) and the biochemical parameters (FIG. 3A-E) were determined. All results were compared to two control groups of healthy and sick untreated animals. […] Quantification was done with Image ProPremier (glomerular sclerosis index-GSI, 50 glomeruli/animal). […] FIG. 5C tabulates podocyte numbers per glomerulusWT1-via immunostaining of glomerular cross-sections (4 μm and 10 μm). Quantification was done with ImageJ according to Animal Models of Diabetic Complications Consortium protocol. 50 glomeruli/animal. We found no effect on the number of podocytes per glomerulus in treated animals. Proteinuria (FIG. 6), weight gain and blood pressure (FIG. 7) were monitored at least every 2 weeks. All animals were sacrificed at the end of the observation period and biochemical parameters (FIG. 8) as well as histological changes (FIG. 9) were determined consequently. All results were compared to control groups of healthy and sick untreated animals. […] FIG. 9A are exemplary images of healthy, untreated and Atrasentan treated kidney samples."}, "[4]": {"test_system": "Endothelin-1, ETAR and ETBR", "assay": "expression of Endothelin-1, ETAR and ETBR (real-time PCR, Western blot) in kidney of the mouse model", "type": "in vivo", "settings": "Atrasentan treated animals, Example 2", "method": "Western blot analysis was performed to confirm the observation of increased mRNA level in the late course of disease (FIG. 11)."}, "podocin": {"test_system": "podocin", "assay": "podocin expression analysis (Western blot, qRT-PCR, immunofluorescence) in the mouse model", "type": "in vivo", "settings": "treated animals, Example 2", "method": "Further podocin expression analysis was carried out."}, "ETA receptor": {"molecular_target": "T1, ETA receptor (Homo sapiens, UniProt P25101)", "T1 sequence (P25101 21-427)": "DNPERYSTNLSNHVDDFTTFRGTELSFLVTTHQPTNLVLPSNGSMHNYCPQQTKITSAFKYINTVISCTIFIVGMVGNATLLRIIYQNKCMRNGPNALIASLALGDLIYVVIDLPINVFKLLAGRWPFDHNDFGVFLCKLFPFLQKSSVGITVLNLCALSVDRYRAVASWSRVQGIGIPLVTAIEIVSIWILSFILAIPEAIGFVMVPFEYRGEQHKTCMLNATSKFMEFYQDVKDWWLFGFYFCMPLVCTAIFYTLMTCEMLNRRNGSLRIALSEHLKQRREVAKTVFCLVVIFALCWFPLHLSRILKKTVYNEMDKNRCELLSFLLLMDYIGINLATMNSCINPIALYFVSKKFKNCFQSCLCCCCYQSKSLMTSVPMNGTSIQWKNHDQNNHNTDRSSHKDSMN", "settings": "cited from earlier work"}, "[5]": {"settings": "delayed treatment, 4 weeks of treatment, compared to sick untreated animals of the same age, Example 2"}},
  "note": "“Also recorded” adds a separate entry of the source.",
  "data": [
    {"compound": "CCCCN(CCCC)C(=O)CN1C[C@H](c2ccc3c(c2)OCO3)[C@@H](C(=O)O)[C@@H]1c1ccc(OC)cc1", "note": "[atrasentan, (2R,3R,4S)-4-(1,3-Benzodioxol-5-yl)-1-[2-(dibutylamino)-2-oxoethyl]-2-(4-methoxyphenyl)pyrrolidine-3-carboxylic acid]", "values": [
      {"measurement": "proteinuria", "setting": "Nphs2^R140Q/− mice [1]; delayed treatment 5 mg/kg/d after 4 weeks of disease state, Example 2", "result": "reaches a peak and declines afterwards progressively; also recorded: decreased progressively"},
      {"measurement": "proteinuria", "setting": "Nphs2^R140Q/− mice [1]; delayed treatment 5 mg/kg/d started four weeks after induction, n=9, Example 1", "result": "effective attenuation of proteinuria; also recorded: antiproteinuric effect"},
      {"measurement": "proteinuria", "setting": "Nphs2^R140Q/− mice [1]; immediate or prophylactic treatment, 2.5, 5 or 15 mg/kg/d via food, first 4 weeks after induction, Example 1", "result": "no beneficial effect in attenuating proteinuria; also recorded: no antiproteinuric effect"},
      {"measurement": "blood pressure", "setting": "Nphs2^R140Q/− mice [2]; delayed treatment 5 mg/kg/d, compared to untreated animals, Example 1", "result": "lowered blood pressure"},
      {"measurement": "MAP", "setting": "Nphs2^R140Q/− mice [2]; delayed treatment (D), wk7, p=0.001 v untreated 99.5", "result": 80.4, "unit": "mmHg"},
      {"measurement": "blood pressure", "setting": "Nphs2^R140Q/− mice [2]; four-week delay, 5 mg/kg/d, compared to untreated animals at week 5 and 7 (p=0.001, p=0.047), Example 2", "result": "significant decrease of blood pressure"},
      {"measurement": "blood pressure", "setting": "Nphs2^R140Q/− mice [2]; prophylactic 2.5 mg/kg/d, compared to untreated and healthy animals, Example 1", "result": "higher blood pressure"},
      {"measurement": "blood pressure", "setting": "Nphs2^R140Q/− mice [2]; prophylactic 5 mg/kg/d, compared to untreated and healthy animals, Example 1", "result": "higher blood pressure"},
      {"measurement": "blood pressure", "setting": "Nphs2^R140Q/− mice [2]; prophylactic 15 mg/kg/d, compared to untreated animals, Example 1", "result": "lower blood pressure"},
      {"measurement": "tubulointerstitial fibrosis", "setting": "Nphs2^R140Q/− mice [3]; 2.5 mg/kg/d, p<0.05 compared to untreated group, Example 1", "result": "reduced area affected by fibrosis"},
      {"measurement": "tubulointerstitial fibrosis", "setting": "Nphs2^R140Q/− mice [3]; 5 mg/kg/d, p<0.05 compared to untreated group, Example 1", "result": "reduced area affected by fibrosis"},
      {"measurement": "tubulointerstitial fibrosis", "setting": "Nphs2^R140Q/− mice [3]; 15 mg/kg/d, Example 1", "result": "increase of tubulointerstial fibrosis"},
      {"measurement": "glomerular sclerosis index (GSI)", "setting": "Nphs2^R140Q/− mice [3]; all treatment groups, PAS staining, 50 glomeruli/animal, Example 1", "result": "No improvement"},
      {"measurement": "podocytes per glom", "setting": "Nphs2^R140Q/− mice [3]; delayed treatment (D), n.s. vs. untreated wk 8 32%", "result": "54 % of healthy controls"},
      {"measurement": "GSI", "setting": "Nphs2^R140Q/− mice [3]; delayed treatment (D), n=9, p=0.0008 v untreated wk 8 2.27", "result": 1.69},
      {"measurement": "glomerulosclerosis", "setting": "Nphs2^R140Q/− mice [3]; [5]", "result": "mitigated"},
      {"measurement": "tubulointerstitial fibrosis", "setting": "Nphs2^R140Q/− mice [3]; [5]", "result": "mitigated"},
      {"measurement": "podocyte population", "setting": "Nphs2^R140Q/− mice [3]; delayed treatment, 4 weeks of treatment, Example 2", "result": "No notable effects"},
      {"measurement": "number of podocytes per glomerulus", "setting": "Nphs2^R140Q/− mice [3]; treated animals, WT1 immunostaining, Example 1", "result": "no effect"},
      {"measurement": "ETAR mRNA expression", "setting": "[4]", "result": "lower expression"},
      {"measurement": "ETBR mRNA expression", "setting": "[4]", "result": "lower expression"},
      {"measurement": "endothelin-1 mRNA expression", "setting": "[4]", "result": "lower expression"},
      {"measurement": "protein expression of endothelin-1", "setting": "[4]; Western blot", "result": "decreased protein expression"},
      {"measurement": "Podocin protein abundance", "setting": "podocin; Western blot", "result": "partly preserved"},
      {"measurement": "Podocin mRNA expression", "setting": "podocin; qRT-PCR", "result": "partly preserved"},
      {"measurement": "relative selectivity for ETA receptor over ETB receptor", "setting": "ETA receptor", "result": "greater than 1,800 fold"}
    ]}
  ]
}
